In one test the test system is Enterococcus faecium. The experiment in a line: Tested for in vitro antibacterial activity against Enterococcus faecium 02D31P2 vancomycin teicoplanin erythromycin resistance phenotype. It is filed as functional.
The subject of a further test is Streptococcus pyogenes. The experiment in a line: Tested for in vitro antibacterial activity against Streptococcus pyogenes O2A1UC1 phenotype. Type of test: functional.
The test system of test [1] is Staphylococcus aureus. The experiment in a line: Tested for in vitro antibacterial activity against Staphylococcus aureus 011 HT1 novobiocin resistance phenotype. It is filed as functional.
Test [2] has as its system Staphylococcus epidermidis. The experiment in a line: Tested for in vitro antibacterial activity against Staphylococcus epidermidis 012GO42 oxacillin resistance phenotype. Type of test: functional.
Test [3] concerns Staphylococcus aureus. The experiment in a line: Tested for in vitro antibacterial activity against Staphylococcus aureus 011 HT3 phenotype. Type of test: functional.
Test [4] deals with Staphylococcus aureus. The experiment in a line: IC50 was determined for gyrase B of Staphylococcus aureus against novobiocin (0.5 mg/mL) as reference; IC50nov/IC50comp.
In test [5] the test system is Staphylococcus aureus. The experiment in a line: Tested for in vitro antibacterial activity against Staphylococcus aureus 011 GO64 ofloxacin oxacillin erythromycin resistance phenotype. It is filed as functional.

≈ marks a conversion by molar mass, not a printed value.

Broadly, the MIC is the lowest concentration that inhibits growth of the organism. A low value points to a more susceptible organism.

In the case of `C#CCONC(=O)O[C@H]1[C@@H](O)[C@H](Oc2ccc3c(=O)c(/C(C)=N/OC)c(O)oc3c2C)O[C@@](C)(C=C)[C@@H]1OC`, the MIC in the test with Enterococcus faecium was 1.2 µg/mL (≈ 2.2 µM); in the test with Streptococcus pyogenes, 1.2 µg/mL (≈ 2.2 µM); in the test with Staphylococcus aureus [1], 2.5 µg/mL (≈ 4.57 µM); in test [2], 0.15 µg/mL (≈ 0.274 µM); in the test on Staphylococcus aureus [3], less than 0.04 µg/mL; in the test on Staphylococcus aureus [5], 0.3 µg/mL (≈ 0.549 µM). In addition, in the test with Staphylococcus aureus [4], the Ratio worked out at 2.6.
Regarding `C#CCONC(=O)O[C@H]1[C@@H](O)[C@H](Oc2ccc3c(O)c(/C(C)=N/OC)c(=O)oc3c2C)O[C@@H](CC)[C@@H]1OC`, the MIC in the test on Enterococcus faecium is 40 µg/mL (≈ 74.8 µM); in the test with Streptococcus pyogenes, 2.5 µg/mL (≈ 4.68 µM); with Staphylococcus aureus [1] it was 20 µg/mL (≈ 37.4 µM); in test [2] it was 0.3 µg/mL (≈ 0.561 µM); in the test on Staphylococcus aureus [3] it was 0.3 µg/mL (≈ 0.561 µM); with Staphylococcus aureus [5], 0.6 µg/mL (≈ 1.12 µM). In the test on Staphylococcus aureus [4], the Ratio was 2.6.
Consider `C#CCONC(=O)O[C@H]1[C@@H](O)[C@H](Oc2ccc3c(O)c(/C(C)=N/OC)c(=O)oc3c2C)OC(CC)(CC)[C@@H]1OC`, for which the MIC is 0.6 µg/mL (≈ 1.07 µM) against Enterococcus faecium; 0.6 µg/mL (≈ 1.07 µM) in the test with Streptococcus pyogenes; 2.5 µg/mL (≈ 4.44 µM) in the test with Staphylococcus aureus [1]; less than 0.04 µg/mL in test [2]; less than 0.04 µg/mL in the test on Staphylococcus aureus [3]; 0.08 µg/mL (≈ 0.142 µM) against Staphylococcus aureus [5]. Besides, in the test on Staphylococcus aureus [4], the Ratio turned out to be 4.
For `C#CCONC(=O)O[C@H]1[C@@H](O)[C@H](Oc2ccc3c(=O)c(/C(C)=N/OC)c(O)oc3c2C)O[C@@](C)(CC=C)[C@@H]1OC`, the MIC was 0.6 µg/mL (≈ 1.07 µM) with Enterococcus faecium; 0.3 µg/mL (≈ 0.535 µM) in the test with Streptococcus pyogenes; 1.2 µg/mL (≈ 2.14 µM) against Staphylococcus aureus [1]; less than 0.04 µg/mL in test [2]; less than 0.04 µg/mL against Staphylococcus aureus [3]. The Ratio with Staphylococcus aureus [4] came out at 2.6.
As to `CO[C@@H]1[C@@H](OC(=O)c2ccc(C)[nH]2)[C@@H](O)[C@H](Oc2ccc3c(O)c(NC(=O)c4ccc(O)c(CC=C(C)C)c4)c(=O)oc3c2Cl)OC1(C)C` [CHLOROBIOCIN], the minimal inhibitory concentration (MIC) against Enterococcus faecium is less than 0.04 µg/mL; in the test on Streptococcus pyogenes, less than 0.04 µg/mL; in the test with Staphylococcus aureus [1], 0.6 µg/mL (≈ 0.861 µM); in the test on Staphylococcus aureus [3], less than 0.04 µg/mL. For the same molecule, in the test with Staphylococcus aureus [4], the Ratio was 1.7.

Values taken from ChEMBL document CHEMBL1133253, “Improved antibacterial activities of coumarin antibiotics bearing 5',5'-dialkylnoviose: biological activity of RU79115” (Bioorg Med Chem Lett, 2000).
